Literature values as cited in patent US20080008772A1, “Narcotic biphasic release compositions and methods for treatment of coughing, sneezing, rhinorrhea, and/or nasal obstruction” (Everett Laboratories, Inc., priority 2006, published 2008).

Tests used:
[1] = in vivo

Q: For `COc1ccc2c3c1O[C@H]1C(=O)CC[C@H]4[C@@H](C2)N(C)CC[C@]314.COc1ccc2c3c1O[C@H]1C(=O)CC[C@H]4[C@@H](C2)N(C)CC[C@]314.O.O.O.O.O.O=C(O)C(O)C(O)C(=O)O.O=C(O)C(O)C(O)C(=O)O` [Hydrocodone bitartrate, 4,5a-epoxy-3-methoxy-17-methylmorphinan-6-one tartrate (1:1)hydrate (2:5)], which sedative action (at equi-effective doses, versus codeine) is on record?
A: greater than codeine

Q: With `COc1ccc2c3c1O[C@H]1C(=O)CC[C@H]4[C@@H](C2)N(C)CC[C@]314` [hydrocodone, 4,5α-epoxy-3-methoxy-17-methylmorphinan-6-one] as the compound, how does the analgesic effects (at therapeutic antitussive doses) read?
A: does exert analgesic effects

Q: And the “effects on the cardiovascular system” value (therapeutic doses)?
A: insignificant

Q: And the constipation effects (versus morphine and codeine)?
A: much weaker than that of morphine and no stronger than that of codeine

Q: With `COc1ccccc1OCC(O)CO` (centres unmarked) [Guaifenesin, 3-(2-methoxyphenoxy)-1,2 propanediol] as the compound, how does the plasma half life [1] read?
A: one
